# Assay results: ChEMBL document CHEMBL1201862, “PubChem BioAssay data set” (2004)
#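 Test compounds were applied to cells in 96-well plates for 48 hours at 5 doses. Abbreviation: GI50, concentration required for 50% inhibition of growth.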 Calls of active or inactive are those of the source. Cut-off read from the data, not from the text of the source: active = GI50 up to about 1.1 µM and inactive = higher.
# Tests used:
# Assay in all cases: NCI-60 cell line screen, 48 h
# UO-31 = system: UO-31
# SK-MEL-5 = system: SK-MEL-5
# M14 = system: M14
# HCT-116 = system: HCT-116
# SN12C = system: SN12C
# T47D = system: T47D
# OVCAR-8 = system: OVCAR-8
# NCI-H23 = system: NCI-H23
# HL-60 = system: HL-60
# DU-145 = system: DU-145
# OVCAR-5 = system: OVCAR-5
# SF-539 = system: SF-539
# MOLT-4 = system: MOLT-4
# SK-MEL-28 = system: SK-MEL-28
# ACHN = system: ACHN
# SW-620 = system: SW-620
# MDA-MB-231 = system: MDA-MB-231
# HCC 2998 = system: HCC 2998
# SNB-19 = system: SNB-19
# NCI-H226 = system: NCI-H226
# NCI-H460 = system: NCI-H460
# RPMI-8226 = system: RPMI-8226
# OVCAR-4 = system: OVCAR-4
# COLO 205 = system: COLO 205
# EKVX = system: EKVX
# HOP-92 = system: HOP-92
# TK-10 = system: TK-10
# NCI/ADR-RES = system: NCI/ADR-RES
# Hs-578T = system: Hs-578T
# SK-OV-3 = system: SK-OV-3
# CCRF-CEM = system: CCRF-CEM
# SF-268 = system: SF-268
# BT-549 = system: BT-549
# UACC-62 = system: UACC-62
# 786-0 = system: 786-0
# SF-295 = system: SF-295
# SNB-75 = system: SNB-75
# SK-MEL-2 = system: SK-MEL-2
# LOX IMVI = system: LOX IMVI
# OVCAR-3 = system: OVCAR-3
# KM12 = system: KM12
# A549 = system: A549
# PC-3 = system: PC-3
# RXF 393 = system: RXF 393
# MCF7 = system: MCF7
# HT-29 = system: HT-29
# MDA-N = system: MDA-N
# CAKI-1 = system: CAKI-1
# IGROV-1 = system: IGROV-1
# Malme-3M = system: Malme-3M
# SR = system: SR
# HCT-15 = system: HCT-15
# U-251 = system: U-251
# A498 = system: A498
# NCI-H522 = system: NCI-H522
# K562 = system: K562
# HOP-62 = system: HOP-62
# MDA-MB-435 = system: MDA-MB-435
# UACC-257 = system: UACC-257
smiles,measurement,setting,value
O=C(NCCCN1CCN(CCCNC(=O)c2cc(-c3ccccc3)nc3ccccc23)CC1)c1cc(-c2ccccc2)nc2ccccc12,GI50,UO-31,9.18 µM (inactive)
same,GI50,SK-MEL-5,2.02 µM (inactive)
same,GI50,M14,2.28 µM (inactive)
same,GI50,HCT-116,23.4 µM (inactive)
same,GI50,SN12C,16.3 µM (inactive)
same,GI50,T47D,8.99 µM (inactive)
same,GI50,OVCAR-8,12.2 µM (inactive)
same,GI50,NCI-H23,37.3 µM (inactive)
same,GI50,HL-60,> 32.7 µM (inactive)
same,GI50,DU-145,29.8 µM (inactive)
same,GI50,OVCAR-5,29.6 µM (inactive)
same,GI50,SF-539,15.2 µM (inactive)
same,GI50,MOLT-4,14 µM (inactive)
same,GI50,SK-MEL-28,2.05 µM (inactive)
same,GI50,ACHN,15.4 µM (inactive)
same,GI50,SW-620,9.71 µM (inactive)
same,GI50,MDA-MB-231,26.1 µM (inactive)
same,GI50,HCC 2998,2.88 µM (inactive)
same,GI50,SNB-19,14.1 µM (inactive)
same,GI50,NCI-H226,27.7 µM (inactive)
same,GI50,NCI-H460,9.2 µM (inactive)
same,GI50,RPMI-8226,7.8 µM (inactive)
same,GI50,OVCAR-4,17.8 µM (inactive)
same,GI50,COLO 205,8.77 µM (inactive)
same,GI50,EKVX,21.5 µM (inactive)
same,GI50,HOP-92,5.6 µM (inactive)
same,GI50,TK-10,27.3 µM (inactive)
same,GI50,NCI/ADR-RES,24.1 µM (inactive)
same,GI50,Hs-578T,13.2 µM (inactive)
same,GI50,SK-OV-3,16.4 µM (inactive)
same,GI50,CCRF-CEM,11.6 µM (inactive)
same,GI50,SF-268,> 38.5 µM (inactive)
same,GI50,BT-549,17.6 µM (inactive)
same,GI50,UACC-62,15.9 µM (inactive)
same,GI50,786-0,7.11 µM (inactive)
same,GI50,SF-295,12.3 µM (inactive)
same,GI50,SNB-75,> 38.1 µM (inactive)
same,GI50,SK-MEL-2,16.3 µM (inactive)
same,GI50,LOX IMVI,2.86 µM (inactive)
same,GI50,OVCAR-3,27.7 µM (inactive)
same,GI50,KM12,26.3 µM (inactive)
same,GI50,A549,20.6 µM (inactive)
same,GI50,PC-3,9.62 µM (inactive)
same,GI50,RXF 393,> 30.9 µM (inactive)
same,GI50,MCF7,9.53 µM (inactive)
same,GI50,HT-29,3.63 µM (inactive)
same,GI50,MDA-N,5.64 µM (inactive)
same,GI50,CAKI-1,7.59 µM (inactive)
same,GI50,IGROV-1,9.53 µM (inactive)
same,GI50,Malme-3M,1.59 µM (inactive)
same,GI50,SR,3.37 µM (inactive)
same,GI50,HCT-15,19.4 µM
same,GI50,U-251,12.5 µM (inactive)
same,GI50,A498,33.9 µM (inactive)
same,GI50,NCI-H522,14 µM (inactive)
same,GI50,K562,5.02 µM (inactive)
same,GI50,HOP-62,16.1 µM (inactive)
same,GI50,MDA-MB-435,4.15 µM (inactive)
same,GI50,UACC-257,2.29 µM (inactive)
C=CCOC(=O)[C@@H]1C[C@@H](OC(C)(C)C)CN1C(=O)[C@@H]1[C@H]2OC(C)(C)O[C@H]2CN1C(=O)OCC1c2ccccc2-c2ccccc21,GI50,UO-31,0.15 µM (active)
same,GI50,SK-MEL-5,18.9 µM (inactive)
same,GI50,M14,19.7 µM (inactive)
same,GI50,HCT-116,17.4 µM (inactive)
same,GI50,SN12C,17 µM (inactive)
same,GI50,T47D,19.4 µM (inactive)
same,GI50,OVCAR-8,5.87 µM (inactive)
same,GI50,NCI-H23,17.6 µM (inactive)
same,GI50,HL-60,11 µM (inactive)
same,GI50,DU-145,3.45 µM (inactive)
same,GI50,OVCAR-5,16.9 µM (inactive)
same,GI50,SF-539,14.8 µM (inactive)
same,GI50,MOLT-4,15.6 µM (inactive)
same,GI50,SK-MEL-28,18.1 µM (inactive)
same,GI50,ACHN,15.9 µM (inactive)
same,GI50,SW-620,20.9 µM (inactive)
same,GI50,MDA-MB-231,17.9 µM (inactive)
same,GI50,HCC 2998,17.1 µM (inactive)
same,GI50,SNB-19,16.9 µM (inactive)
same,GI50,NCI-H226,21.5 µM (inactive)
same,GI50,NCI-H460,10.5 µM (inactive)
same,GI50,RPMI-8226,6.19 µM (inactive)
same,GI50,OVCAR-4,17.2 µM (inactive)
same,GI50,COLO 205,18.1 µM (inactive)
same,GI50,EKVX,5.05 µM (inactive)
same,GI50,HOP-92,18.1 µM (inactive)
same,GI50,TK-10,18.4 µM (inactive)
same,GI50,NCI/ADR-RES,3.68 µM (inactive)
same,GI50,Hs-578T,21.1 µM (inactive)
same,GI50,SK-OV-3,17.2 µM (inactive)
same,GI50,CCRF-CEM,16.6 µM (inactive)
same,GI50,SF-268,20.8 µM (inactive)
same,GI50,BT-549,20.1 µM (inactive)
same,GI50,UACC-62,17.7 µM (inactive)
same,GI50,786-0,5.46 µM (inactive)
same,GI50,SF-295,17.9 µM (inactive)
same,GI50,SNB-75,17.5 µM (inactive)
same,GI50,SK-MEL-2,32.2 µM (inactive)
same,GI50,LOX IMVI,2.3 µM (inactive)
same,GI50,OVCAR-3,17.9 µM (inactive)
same,GI50,KM12,2.86 µM (inactive)
same,GI50,A549,15.3 µM (inactive)
same,GI50,PC-3,15.7 µM (inactive)
same,GI50,RXF 393,10.2 µM (inactive)
same,GI50,MCF7,48.4 µM (inactive)
same,GI50,HT-29,17.2 µM (inactive)
same,GI50,MDA-N,18.1 µM (inactive)
same,GI50,CAKI-1,4.88 µM (inactive)
same,GI50,IGROV-1,17 µM (inactive)
same,GI50,Malme-3M,18.2 µM (inactive)
same,GI50,SR,8.05 µM (inactive)
same,GI50,HCT-15,11.4 µM
same,GI50,U-251,12.6 µM (inactive)
same,GI50,A498,15.7 µM (inactive)
same,GI50,NCI-H522,0.383 µM (active)
same,GI50,K562,11 µM (inactive)
same,GI50,HOP-62,1.75 µM (inactive)
same,GI50,MDA-MB-435,17.2 µM (inactive)
same,GI50,UACC-257,17.5 µM (inactive)
C[C@]12CC[C@H](O)C[C@H]1CC[C@@H]1[C@@H]2CC[C@]2(C)[C@@H](C3=CC(=O)OC3)[C@@H](O)C[C@]12O [GITOXIGENIN],GI50,UO-31,0.914 µM (active)
same,GI50,SK-MEL-5,1.3 µM (inactive)
same,GI50,M14,2.45 µM (inactive)
same,GI50,HCT-116,1.66 µM (inactive)
same,GI50,SN12C,0.566 µM (active)
same,GI50,T47D,3.65 µM (inactive)
same,GI50,OVCAR-8,2.93 µM (inactive)
same,GI50,NCI-H23,0.682 µM (active)
same,GI50,HL-60,1.62 µM (inactive)
same,GI50,DU-145,1.04 µM (active)
same,GI50,OVCAR-5,2.81 µM (inactive)
same,GI50,SF-539,0.849 µM (active)
same,GI50,MOLT-4,0.408 µM (active)
same,GI50,SK-MEL-28,5.13 µM (inactive)
same,GI50,ACHN,0.451 µM (active)
same,GI50,SW-620,3.18 µM (inactive)
same,GI50,MDA-MB-231,4.93 µM (inactive)
same,GI50,HCC 2998,2.47 µM (inactive)
same,GI50,SNB-19,4.45 µM (inactive)
same,GI50,NCI-H226,3.12 µM (inactive)
same,GI50,NCI-H460,0.499 µM (active)
same,GI50,RPMI-8226,2.77 µM (inactive)
same,GI50,OVCAR-4,1.4 µM (inactive)
same,GI50,COLO 205,2.61 µM (inactive)
same,GI50,EKVX,0.785 µM (active)
same,GI50,HOP-92,9.66 µM (inactive)
same,GI50,TK-10,0.625 µM (active)
same,GI50,NCI/ADR-RES,1.61 µM (inactive)
same,GI50,Hs-578T,0.968 µM (active)
same,GI50,SK-OV-3,2.71 µM (inactive)
same,GI50,CCRF-CEM,0.51 µM (active)
same,GI50,SF-268,0.845 µM (active)
same,GI50,BT-549,1.89 µM (inactive)
same,GI50,UACC-62,2.62 µM (inactive)
same,GI50,786-0,0.995 µM (active)
same,GI50,SF-295,1.41 µM (inactive)
same,GI50,SNB-75,4.15 µM (inactive)
same,GI50,SK-MEL-2,2.17 µM (inactive)
same,GI50,LOX IMVI,2.9 µM (inactive)
same,GI50,OVCAR-3,0.457 µM (active)
same,GI50,KM12,4.85 µM (inactive)
same,GI50,A549,0.445 µM (active)
same,GI50,PC-3,1.44 µM (inactive)
same,GI50,RXF 393,1.15 µM (inactive)
same,GI50,MCF7,2.05 µM (inactive)
same,GI50,HT-29,3.27 µM (inactive)
same,GI50,MDA-N,2.42 µM (inactive)
same,GI50,CAKI-1,1.58 µM (inactive)
same,GI50,IGROV-1,2.86 µM (inactive)
same,GI50,Malme-3M,1.77 µM (inactive)
same,GI50,SR,0.977 µM (active)
same,GI50,HCT-15,2.58 µM
same,GI50,U-251,2.22 µM (inactive)
same,GI50,A498,2.72 µM (inactive)
same,GI50,NCI-H522,0.435 µM (active)
same,GI50,K562,3.38 µM (inactive)
same,GI50,HOP-62,1.11 µM (active)
same,GI50,MDA-MB-435,3.01 µM (inactive)
same,GI50,UACC-257,2.2 µM (inactive)
